Source: US20250041245A1, “ENDOXIFEN FOR TREATMENT OF CANCERS” (Atossa Therapeutics, Inc., priority 2021, published 2025)
Several values for one entry are separate records, joined by “and”; a condition that tells them apart may be missing. Equal values may be shown once. Entries after “also recorded” stand apart in the source; their conditions may differ.

Experiments:
Format in all cases: cell-based, human
[1] = system: patient-derived tumor organoids (PDTOs), esophageal adenocarcinoma; experiment: Endoxifen screen in PDTOs: esophageal adenocarcinoma; set-up: key to Personalization Category: Personalization categories range from High, Good, Moderate, Low, to None; Personalization categories range from High, Good, Moderate, Low, to None; Personalization categories range from High, Good, Moderate, Low, to None; Personalization categories range from High, Good, Moderate, Low, to None; Personalization categories range from High, Good, Moderate, Low, to None; AUC: unit not given beside the values
Protocol: (§1) This example describes screening endoxifen in patient-derived tumor organoids. Endoxifen was tested as a single agent on tumor organoids derived from patients diagnosed with various cancer types using a personalized cancer treatment screening assay (PARIS© Test, SEngine Precision Medicine). The screen utilized patient-derived tumor organoids (PDTOs) along with high-throughput drug screening and machine learning-guided data analysis to quantify the efficacy of endoxifen against samples derived from individual patients diagnosed with various cancer types. PDTOs are self-organizing, three-dimensional organoid structures that recapitulate structural, functional, and genomic aspects of in vivo organs. The PDTOs were grown in culture from patient tumor biopsy samples.
(§2) Fresh patient biopsy samples received following surgery were cleaned and purified. Immune cells (e.g., lymphocytes, blood cells), cancer-associated fibroblasts, and other non-tumor cells were removed to establish pure PDTOs for endoxifen testing. The tumor organoids were grown and expanded by supplying organ- and patient-specific growth factors and nutrients. The PDTOs were treated with increasing concentrations of endoxifen ranging from about 30 nM to about 10 μM, and the drug response was measured using a luminescence readout. A lower luminescence was indicative of a stronger drug response.
(§3) The results were analyzed using a “SEngine Precision Medicine” (SPM) scoring system to assess the sensitivity and personalization of each tumor organoid to endoxifen. […]
(§4) This example describes testing endoxifen efficacy against 17 distinct cancer types in patient-derived tumor organoids (PDTOs). […] For each PDTO sample, the drug response was measured using a luminescent readout over a range of endoxifen concentrations. The drug response was evaluated based on the area under the fitted dose response curve (AUC) and the SPM scoring system. […] The area under the curve was calculated from the normalized curve. […] The SPM scores were based on machine learning models that incorporate values for how well the drug kill patient cells (sensitivity metric), the relative drug responses of a patient to all other patients in a sample database (personalization metric), and knowledge of clinical outcomes for patients that had been evaluated with the personalized cancer screening assay (PARIS® Test, SEngine Precision Medicine).
(§5) The SPM scoring system evaluated whether a PDTO was unresponsive or responsive to endoxifen and the degree of drug response for PDTOs that were responsive to endoxifen. […] The sensitivity category was determined from the sensitivity metric and is a measure of overall cell death of a patient's cells in response to endoxifen at six concentrations. […]

[2] = system: patient-derived tumor organoids (PDTOs), endometrial carcinoma; experiment: Endoxifen screen in PDTOs: endometrial carcinoma; set-up: key to Personalization Category: Personalization categories range from High, Good, Moderate, Low, to None; Personalization categories range from High, Good, Moderate, Low, to None; Personalization categories range from High, Good, Moderate, Low, to None; Personalization categories range from High, Good, Moderate, Low, to None; Personalization categories range from High, Good, Moderate, Low, to None; key to Sensitivity Category: Sensitivity categories range from High, Good, Moderate, Low, to None; Sensitivity categories range from High, Good, Moderate, Low, to None; Sensitivity categories range from High, Good, Moderate, Low, to None; Sensitivity categories range from High, Good, Moderate, Low, to None; Sensitivity categories range from High, Good, Moderate, Low, to None; AUC: unit not given beside the values
Protocol: as §1, §2, §3, §4, §5

[3] = system: patient-derived tumor organoids (PDTOs), neuroblastoma; experiment: Endoxifen screen in PDTOs: neuroblastoma; set-up: key to Personalization Category: Personalization categories range from High, Good, Moderate, Low, to None; Personalization categories range from High, Good, Moderate, Low, to None; Personalization categories range from High, Good, Moderate, Low, to None; Personalization categories range from High, Good, Moderate, Low, to None; Personalization categories range from High, Good, Moderate, Low, to None; key to Sensitivity Category: Sensitivity categories range from High, Good, Moderate, Low, to None; Sensitivity categories range from High, Good, Moderate, Low, to None; Sensitivity categories range from High, Good, Moderate, Low, to None; Sensitivity categories range from High, Good, Moderate, Low, to None; Sensitivity categories range from High, Good, Moderate, Low, to None; AUC: unit not given beside the values; settings: each line one patient sample; for IC50: four-parameter logistic fit
Protocol: as §1, §2
The results were analyzed using a “SEngine Precision Medicine” (SPM) scoring system to assess the sensitivity and personalization of each tumor organoid to endoxifen. The SPM score correlates with clinical outcomes, such that a higher SPM score for a specific PDTO-drug combination predicts a more favorable clinical outcome following treatment of the corresponding patient with the tested drug.
This example describes testing endoxifen efficacy against 17 distinct cancer types in patient-derived tumor organoids (PDTOs). Screening of PDTOs was performed as described in EXAMPLE 1. For each PDTO sample, the drug response was measured using a luminescent readout over a range of endoxifen concentrations. The drug response was evaluated based on the area under the fitted dose response curve (AUC) and the SPM scoring system. AUC values were normalized for each PDTO. Briefly, data points at each drug concentration were first normalized to a negative control, then a dose response drug curve was approximated using a four-parameter logistic model fitted to the normalized data points. The area under the curve was calculated from the normalized curve. Normalization allowed for comparison of AUC values between patient samples. The SPM scores were based on machine learning models that incorporate values for how well the drug kill patient cells (sensitivity metric), the relative drug responses of a patient to all other patients in a sample database (personalization metric), and knowledge of clinical outcomes for patients that had been evaluated with the personalized cancer screening assay (PARIS® Test, SEngine Precision Medicine).
The SPM scoring system evaluated whether a PDTO was unresponsive or responsive to endoxifen and the degree of drug response for PDTOs that were responsive to endoxifen. The SPM scoring system generated metrics an SPM score, predictive of clinical outcome, overall drug response (response category), drug sensitivity (sensitivity category), and drug personalization (personalization category). SPM scores ranged from 1-15, corresponding to the following drug response categories: no response (SPM 1-8), low response (SPM 9), moderate response (SPM 10-11), good response (SPM 12-13), and exceptional response (SPM 14-15). […] Moderate to good drug responses (SPM 10-13) may indicate that a drug has clinical relevance, possibly in combination with other drugs. The sensitivity category was determined from the sensitivity metric and is a measure of overall cell death of a patient's cells in response to endoxifen at six concentrations. […]

- IC50 ([1]; Homo sapiens, Patient 14, four-parameter logistic fit): 3.97 µM
- IC50 ([3]; Homo sapiens): 5.73 µM
- IC50 [3]: 5.87 µM and 7.18 µM
Structure (SMILES): CC/C(=C(\c1ccc(O)cc1)c1ccc(OCCNC)cc1)c1ccccc1 [Endoxifen, 4-hydroxy-N-desmethyltamoxifen]
- Personalization Category ([1]; Patient 14): Good
- AUC ([1]; Patient 14, normalized area under fitted dose response curve): 0.7771
- SPM Score ([1]; Patient 14, score range 1-15): 11
- Personalization Category ([2]; patient 39): None
- Sensitivity Category ([2]; patient 39): None
- AUC ([2]; patient 39, normalized area under fitted dose response curve): 1.0102
- SPM Score ([2]; patient 39, score range 1-15): 1
- Personalization Category [3]: Low and Moderate and None
- Response Category [3]: Low (low response (SPM 9)); also recorded: Moderate (moderate response (SPM 10-11)); also recorded: None (no response (SPM 1-8))
- Sensitivity Category [3]: Low and None
- AUC ([3]; normalized area under fitted dose response curve): 0.8848 and 0.8184 and 0.9511
- SPM Score ([3]; score range 1-15): 9 and 10 and 1
